Active and inactive are the calls of the source.
Tests used:
[1] = system: Streptococcus sp. 'group A'; assay: Streptococcus pyogenes SK(-)GAS viability under kanamycin – luminescence, BacTiterGlo, confirmation, counter-screen for streptokinase expression inhibitor project, dose response (AID 1900); assay type: functional, organism-based
Streptokinase A = biological target: T1, Streptokinase A (Streptococcus pyogenes serotype M1, UniProt P10520); assay: viability-normalized secreted streptokinase activity reduction – plasminogen activation absorbance, OD405, dose response (AID 1914); assay type: functional, Streptococcus pyogenes M1 GAS;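 also: secreted streptokinase activity via plasminogen activation per viability signal from cell pellet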
T1 sequence (P10520 whole entry): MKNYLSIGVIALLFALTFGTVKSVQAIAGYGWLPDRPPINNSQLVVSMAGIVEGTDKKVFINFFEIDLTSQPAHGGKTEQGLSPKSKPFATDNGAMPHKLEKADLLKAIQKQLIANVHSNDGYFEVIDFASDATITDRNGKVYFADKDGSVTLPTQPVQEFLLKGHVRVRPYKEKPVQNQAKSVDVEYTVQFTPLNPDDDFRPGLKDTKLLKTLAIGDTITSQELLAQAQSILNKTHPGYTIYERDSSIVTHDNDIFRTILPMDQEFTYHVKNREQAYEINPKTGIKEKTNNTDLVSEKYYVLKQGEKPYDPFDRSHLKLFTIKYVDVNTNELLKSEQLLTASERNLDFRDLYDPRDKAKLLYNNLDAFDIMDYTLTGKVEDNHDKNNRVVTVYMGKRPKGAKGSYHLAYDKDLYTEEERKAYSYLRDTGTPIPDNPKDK

Streptococcus = assay: GAS UMAA2166 growth inhibition – luminescence, BacTiterGlo, counter-screen for streptokinase expression inhibitor project, dose response (AID 1915); assay type: functional, organism-based;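 also: potency for reduction of bacterial viability or growth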
[2] = biological target: T2, Microphthalmia-associated transcription factor (Homo sapiens, UniProt O75030); assay: reducers of TRPM1 reporter luminescence, concentration series – cell-based, SK-MEL-5, cherry-picked, set 3, MITF inhibitor project, dose response (AID 493073); assay type: functional;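 also: SK-MEL-5 melanoma cells with luciferase driven by the MITF target TRPM1 promoter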
T2 sequence (O75030 whole entry): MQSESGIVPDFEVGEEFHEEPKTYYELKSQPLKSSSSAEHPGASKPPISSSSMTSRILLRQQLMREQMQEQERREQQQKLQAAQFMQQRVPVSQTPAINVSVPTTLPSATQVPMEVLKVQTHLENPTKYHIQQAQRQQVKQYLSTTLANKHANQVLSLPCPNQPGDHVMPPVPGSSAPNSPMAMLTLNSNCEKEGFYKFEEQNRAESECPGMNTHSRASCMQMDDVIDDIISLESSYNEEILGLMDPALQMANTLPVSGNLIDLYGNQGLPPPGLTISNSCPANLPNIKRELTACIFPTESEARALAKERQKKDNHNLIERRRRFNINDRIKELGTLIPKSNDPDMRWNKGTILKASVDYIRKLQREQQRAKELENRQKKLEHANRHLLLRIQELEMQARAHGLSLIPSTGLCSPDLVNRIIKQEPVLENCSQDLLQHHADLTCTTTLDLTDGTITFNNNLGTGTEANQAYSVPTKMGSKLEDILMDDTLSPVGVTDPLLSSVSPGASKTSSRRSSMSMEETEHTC

[3] = biological target: T3, Endoribonuclease toxin MazF (Escherichia coli K-12, UniProt P0AE70); assay: activation of MazEF endoribonuclease cleavage – biochemical, fluorescence, single-stranded RNA substrate, uHTS hits, dose response (AID 588481); assay type: functional
T3 sequence (P0AE70 whole entry): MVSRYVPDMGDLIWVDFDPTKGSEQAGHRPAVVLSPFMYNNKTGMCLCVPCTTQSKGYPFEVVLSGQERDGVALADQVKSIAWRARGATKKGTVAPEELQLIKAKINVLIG

[4] = biological target: T3, Endoribonuclease toxin MazF; assay: substrate-only fluorescence increase artefacts – biochemical, single-stranded RNase substrate, counter-screen for MazEF activator project, dose response (AID 588502); assay type: functional
Leucine aminopeptidase = biological target: T4, Leucine aminopeptidase (Plasmodium falciparum 3D7, UniProt Q8IL11); assay: P. falciparum M17LAP inhibitors, primary screen, biochemical, fluorogenic H-Leu-NHMec substrate, 1536-well (AID 1619); assay type: functional
T4 sequence (Q8IL11 whole entry): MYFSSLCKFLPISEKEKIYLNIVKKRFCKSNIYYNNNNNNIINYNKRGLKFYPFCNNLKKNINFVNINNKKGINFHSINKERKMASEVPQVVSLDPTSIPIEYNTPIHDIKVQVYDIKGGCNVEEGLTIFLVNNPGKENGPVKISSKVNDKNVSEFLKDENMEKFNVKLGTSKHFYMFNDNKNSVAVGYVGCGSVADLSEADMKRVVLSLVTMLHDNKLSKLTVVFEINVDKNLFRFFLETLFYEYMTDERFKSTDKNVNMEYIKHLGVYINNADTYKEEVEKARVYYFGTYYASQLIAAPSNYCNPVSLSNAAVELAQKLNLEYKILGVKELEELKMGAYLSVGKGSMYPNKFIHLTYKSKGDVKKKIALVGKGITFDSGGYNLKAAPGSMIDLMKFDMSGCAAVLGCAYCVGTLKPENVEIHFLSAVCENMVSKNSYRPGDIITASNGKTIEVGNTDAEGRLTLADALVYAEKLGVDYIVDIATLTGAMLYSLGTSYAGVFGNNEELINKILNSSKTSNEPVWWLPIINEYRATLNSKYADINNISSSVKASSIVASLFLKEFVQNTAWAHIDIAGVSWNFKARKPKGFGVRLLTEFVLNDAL

[5] = biological target: T5, Replicative DNA helicase DnaB (Mycobacterium tuberculosis, UniProt P9WMR3); assay: DnaB intein splicing inhibitors, dose response, biochemical, cell-free fluorescence (AID 449749); assay type: functional
T5 sequence (P9WMR3 whole entry): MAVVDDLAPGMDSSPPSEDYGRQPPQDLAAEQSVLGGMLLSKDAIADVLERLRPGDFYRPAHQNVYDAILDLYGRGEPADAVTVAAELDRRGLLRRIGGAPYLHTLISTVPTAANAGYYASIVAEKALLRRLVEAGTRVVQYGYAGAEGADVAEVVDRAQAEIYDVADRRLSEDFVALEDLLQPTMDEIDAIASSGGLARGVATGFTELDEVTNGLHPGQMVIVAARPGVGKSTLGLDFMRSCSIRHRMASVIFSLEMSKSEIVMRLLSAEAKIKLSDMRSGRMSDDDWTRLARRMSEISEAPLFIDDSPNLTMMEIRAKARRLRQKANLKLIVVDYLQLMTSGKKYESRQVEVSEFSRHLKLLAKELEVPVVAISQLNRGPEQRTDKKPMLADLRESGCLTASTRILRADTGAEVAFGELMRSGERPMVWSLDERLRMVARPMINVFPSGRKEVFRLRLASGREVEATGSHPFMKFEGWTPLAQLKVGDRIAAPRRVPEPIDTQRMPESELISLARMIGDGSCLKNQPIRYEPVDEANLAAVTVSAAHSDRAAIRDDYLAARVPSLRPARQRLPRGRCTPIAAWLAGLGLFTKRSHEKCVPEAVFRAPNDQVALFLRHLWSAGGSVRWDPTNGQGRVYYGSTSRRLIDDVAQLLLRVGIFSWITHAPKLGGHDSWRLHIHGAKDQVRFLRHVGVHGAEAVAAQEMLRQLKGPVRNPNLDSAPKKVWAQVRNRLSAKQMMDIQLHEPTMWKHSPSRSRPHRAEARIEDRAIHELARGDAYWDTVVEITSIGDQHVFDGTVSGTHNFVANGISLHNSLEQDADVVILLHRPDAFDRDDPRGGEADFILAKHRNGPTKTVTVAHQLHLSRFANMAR

Protein RecA = biological target: T6, Protein RecA (Mycobacterium tuberculosis, UniProt P9WHJ3); assay: Fluorescence Cell-Free Homogeneous Dose Retest to Identify Inhibitors of RecA-Intein Splicing Activity. [Related pubchem assays (depositor defined):AID2097, AID2223, AID489010, AID492950]; assay type: functional
T6 sequence (P9WHJ3 whole entry): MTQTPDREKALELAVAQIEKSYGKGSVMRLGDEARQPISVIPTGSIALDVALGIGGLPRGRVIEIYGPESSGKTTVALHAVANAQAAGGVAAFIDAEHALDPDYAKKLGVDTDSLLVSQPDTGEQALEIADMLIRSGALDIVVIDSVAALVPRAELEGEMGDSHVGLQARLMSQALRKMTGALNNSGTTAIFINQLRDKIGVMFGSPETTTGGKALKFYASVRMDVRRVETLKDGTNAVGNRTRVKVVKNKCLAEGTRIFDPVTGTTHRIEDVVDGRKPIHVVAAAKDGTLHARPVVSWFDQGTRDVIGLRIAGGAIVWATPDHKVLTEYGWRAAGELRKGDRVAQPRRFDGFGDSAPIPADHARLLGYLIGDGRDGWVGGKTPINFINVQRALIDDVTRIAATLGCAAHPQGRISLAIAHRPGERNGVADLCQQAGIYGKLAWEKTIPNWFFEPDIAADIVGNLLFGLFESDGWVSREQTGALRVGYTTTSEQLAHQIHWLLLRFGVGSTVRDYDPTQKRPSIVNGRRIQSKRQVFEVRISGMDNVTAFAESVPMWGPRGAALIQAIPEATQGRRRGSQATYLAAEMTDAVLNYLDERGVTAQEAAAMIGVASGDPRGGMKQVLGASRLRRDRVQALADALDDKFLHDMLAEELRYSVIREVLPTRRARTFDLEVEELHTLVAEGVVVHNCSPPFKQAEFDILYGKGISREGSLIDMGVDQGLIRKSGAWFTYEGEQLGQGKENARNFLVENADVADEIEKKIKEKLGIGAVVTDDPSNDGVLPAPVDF

[6] = reduction of Shn3 3'UTR-driven luciferase in osteoblasts – cell-based, Clone20 osteoblasts, firefly luciferase, cherry-picked, dose response (AID 624132); assay type: functional;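 also: firefly luciferase luminescence from reporter carrying the Shn3 3'UTR in osteoblasts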
[7] = loss of viability in HepG2 cells – cell-based, CellTiter-Glo, cherry-picked, cytotoxicity control for Shn3 inhibitor project, dose response (AID 624134); assay type: functional
[8] = non-specific 3'UTR reporter inhibition in Clone20-Shn3RL – cell-based, Renilla luciferase, cherry-picked, counter-screen for Shn3 inhibitor project, dose response (AID 624133); assay type: functional
Paired box protein Pax-8 = Paired box protein Pax-8 (Homo sapiens, UniProt Q06710); assay: PAX8 transcriptional activity inhibition in RMG-I – RMG-I cells, luciferase, cherry-pick, dose response (AID 687027); assay type: functional, cell-based;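 also: luciferase reporter driven by Pax8 target thyroperoxidase promoter measured by SteadyGlo luminescence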
[9] = biological target: T7, RNA-binding protein pos-1 (Caenorhabditis elegans, UniProt G5EF15); assay: disruptors of C. elegans POS-1 RNA interaction – biochemical, fluorescence polarization, dose response (AID 1964);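 also: purified POS-1 fused to maltose binding protein made in E. coli; potency of compounds blocking POS-1 binding to fluorescent RNA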
T7 sequence (G5EF15 whole entry): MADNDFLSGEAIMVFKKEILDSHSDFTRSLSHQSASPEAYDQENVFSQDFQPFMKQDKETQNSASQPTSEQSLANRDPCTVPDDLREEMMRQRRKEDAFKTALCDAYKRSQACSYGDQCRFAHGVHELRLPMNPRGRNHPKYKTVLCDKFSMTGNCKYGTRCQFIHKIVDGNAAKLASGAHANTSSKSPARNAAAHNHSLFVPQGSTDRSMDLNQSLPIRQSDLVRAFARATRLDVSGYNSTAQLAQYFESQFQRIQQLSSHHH

[10] = biological target: T8, Zinc finger protein mex-5 (Caenorhabditis elegans, UniProt Q9XUB2); assay: potency of MEX-5 RNA-binding blockers – biochemical, C. elegans, fluorescence polarization, dose response (AID 1960)
T8 sequence (Q9XUB2 whole entry): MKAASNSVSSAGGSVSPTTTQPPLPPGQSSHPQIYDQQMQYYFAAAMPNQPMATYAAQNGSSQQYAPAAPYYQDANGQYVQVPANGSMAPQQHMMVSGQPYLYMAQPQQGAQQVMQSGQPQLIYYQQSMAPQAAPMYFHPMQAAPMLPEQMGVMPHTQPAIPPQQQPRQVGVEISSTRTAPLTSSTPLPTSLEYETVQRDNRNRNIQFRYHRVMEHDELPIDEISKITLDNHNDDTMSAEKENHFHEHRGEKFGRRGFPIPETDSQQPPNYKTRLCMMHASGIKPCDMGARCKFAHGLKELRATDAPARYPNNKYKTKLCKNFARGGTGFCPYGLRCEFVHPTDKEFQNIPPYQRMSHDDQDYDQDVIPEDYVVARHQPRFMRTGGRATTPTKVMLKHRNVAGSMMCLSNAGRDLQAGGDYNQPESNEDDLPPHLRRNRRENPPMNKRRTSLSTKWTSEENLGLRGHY

[11] = biological target: T9, DNA repair protein RAD52 homolog (Homo sapiens, UniProt P43351); assay type: functional, biochemical
T9 sequence (P43351 whole entry): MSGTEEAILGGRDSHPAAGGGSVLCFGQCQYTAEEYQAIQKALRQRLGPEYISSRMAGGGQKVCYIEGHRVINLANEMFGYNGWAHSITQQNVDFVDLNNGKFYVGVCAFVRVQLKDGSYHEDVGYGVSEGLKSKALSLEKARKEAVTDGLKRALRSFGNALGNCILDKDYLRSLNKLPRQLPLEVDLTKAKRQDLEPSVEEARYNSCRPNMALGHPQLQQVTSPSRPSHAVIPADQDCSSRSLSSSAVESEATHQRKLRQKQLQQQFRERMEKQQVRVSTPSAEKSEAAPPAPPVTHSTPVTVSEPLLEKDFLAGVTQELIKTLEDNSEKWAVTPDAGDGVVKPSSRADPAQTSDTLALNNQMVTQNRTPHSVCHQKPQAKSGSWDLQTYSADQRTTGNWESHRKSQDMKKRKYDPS

Paired box protein Pax-8, sequence (Q06710 whole entry, the tested form may be a part): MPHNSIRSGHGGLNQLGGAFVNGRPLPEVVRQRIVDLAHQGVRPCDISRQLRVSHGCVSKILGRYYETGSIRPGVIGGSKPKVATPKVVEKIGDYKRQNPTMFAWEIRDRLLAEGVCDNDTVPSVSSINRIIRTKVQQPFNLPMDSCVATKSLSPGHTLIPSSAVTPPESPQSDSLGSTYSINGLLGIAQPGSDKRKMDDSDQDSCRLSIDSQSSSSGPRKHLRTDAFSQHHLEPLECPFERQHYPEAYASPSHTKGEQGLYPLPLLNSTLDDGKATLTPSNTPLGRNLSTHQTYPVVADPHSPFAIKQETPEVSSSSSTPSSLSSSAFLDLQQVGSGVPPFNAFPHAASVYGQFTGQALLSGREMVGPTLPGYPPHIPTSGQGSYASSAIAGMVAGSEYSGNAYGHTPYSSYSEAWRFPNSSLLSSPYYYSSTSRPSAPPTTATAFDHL

N#C/C(=C(/O)c1ccc([N+](=O)[O-])o1)c1nc2ccccc2[nH]1
EC50 [1]: 3.57 µM (active)
EC50 (Streptokinase A): 27.6 µM (active)
EC50 (Streptococcus): 66 µM (active)
AC50 [2]: 3.8 µM (active)
EC50 [3]: > 99 µM (inactive)
EC50 [4]: 5.53 µM (active)

N#CC1=C(N)Oc2nc(-c3ccccc3)[nH]c2C1c1cccnc1 (centres undefined)
IC50 (Leucine aminopeptidase): 66.6 µM (active)
AC50 [5]: 11.3 µM (active)
EC50 (Protein RecA): 2.6 µM (active)

CN(C)CC(C(=O)Cc1ccccc1)c1ccccc1 (centres undefined)
AC50 [6]: 7.81 µM (active)
AC50 [7]: 14.5 µM (active)
AC50 [8]: 7.58 µM (active)
AC50 (Paired box protein Pax-8): 1.71 µM (active)

CCN1CCN(Cc2c(C(=O)N/N=C(\C)c3ccc(Cl)cc3)nnn2-c2nonc2N)CC1
EC50 [9]: > 300 µM (not active)
EC50 [10]: > 300 µM (not active)
AC50 [11]: 8.73 µM (active)

CCOc1ccc(NC(=O)CSc2n[nH]c(N)n2)c([N+](=O)[O-])c1
IC50 (Leucine aminopeptidase): 12.7 µM (active)

CC(=O)Nc1nc(C)c(-c2csc(Nc3cccc(C(C)=O)c3)n2)s1
AC50 [2]: 8.38 µM (active)
AC50 [6]: 1.67 µM (active)
AC50 [7]: 21 µM (active)
AC50 [8]: < 0.5 µM (active)

COc1nccnc1NS(=O)(=O)c1ccc(/N=C/c2c(C)[nH]n(-c3ccccc3)c2=O)cc1
IC50 (Leucine aminopeptidase): 35 µM (active)

O=C(c1ccco1)c1c[nH]nc1-c1ccc(Cl)cc1O
IC50 (Leucine aminopeptidase): 101 µM (active)

CN1CCN(CCCNc2nc3ccccc3c3nc(-c4ccccc4)nn23)CC1
AC50 [11]: 14.2 µM (active)

— ChEMBL document CHEMBL1201862, “PubChem BioAssay data set” (2004)
